{"source": "patent US6306636A", "about": "“Nucleic acid segments encoding wheat acetyl-CoA carboxylase” (Arch Development Corporation, priority 1997, dated 2001)", "key": {"[1]": {"test_system": "T1, wheat cytosolic ACCase expressed in yeast", "T1 construct": "Full length cDNA encoding wheat cytosolic ACCase was assembled; made in house; host or cells: S. cerevisiae haploid gene-replacement strain MJ 1.12 (crude extract, Sephadex G50)", "assay": "In vitro inhibition of wheat cytosolic ACCase expressed in yeast (gel-filtered crude extract)", "type": "biochemical", "method": "(§1) Sethoxydim and Cethoxydim (CGA215684) were obtained from CIBA-GEIGY and haloxyfop was obtained from DowElanco. To measure inhibition in vivo, galactose-dependent strains were grown in YPR containing 0.01% galactose (to A600 of ~0.5) and then diluted (~100 fold) to the same initial density with fresh YPR medium containing 0.01% galactose and varying amounts of herbicide added as 100-fold concentrated stock solutions in DMSO. ACCase activity in vitro was measured using protein extracts prepared as described (Mitchell et al., 1993) from 25-50 ml cultures of yeast strains MJ 1.12 and MG 9.11 grown for 24-40 h. Cells were suspended in one volume of extraction buffer (0.3 M sorbitol, 0.1 M NaCl, 5 mM MgCl2, 10 mM Tris pH 7.4, supplemented with protease inhibitors: aprotinin (6.6 μ/mL), leupeptin (1.5 μ/mL), pepstatin A (3 μ/mL) and chymostatin (1 μg/mL), and vortexed with 2 volumes of glass beads for 5 min at 4° C. 1/200 volume of 100 mM ethanol solution of phenylmethylsulfonyl fluoride was added twice during extraction. The cell debris were removed by centrifugation and the supenatant (~0.5 ml) was loaded immediately on a 20 ml Sephadex G50 column equilibrated with 100 mM KCl, 20 mM Tris/HCl (pH 7.5), 20% glycerol, 7 mM β-mercaptoethanol. […] ACCase activity was measured as described before (Gornicki and Haselkorn, 1993) using aliquots of the column fractions. […]"}, "[2]": {"test_system": "strain MJ 1.12 expressing wheat cytosolic ACCase", "assay": "In vivo growth inhibition of yeast gene-replacement strain expressing wheat cytosolic ACCase", "type": "cell-based, S. cerevisiae", "conditions": "for effect on growth of gene-replacement strain (in vivo): MJ 1.12, liquid culture, YPR medium with 0.01% galactose", "method": "The yeast complex medium for vegetative growth contained 1% Bacto-yeast extract, 2% Bacto-peptone, 0.1% adenine sulfate and was supplemented with the following carbon sources: 2% Dextrose in YPD, 2% Raffinose in YPR, 2% galactose and 2% raffinose in YPRG. The yeast synthetic minimal medium (SD) contained 0.17% yeast nitrogen base, 0.5% ammonium sulfate, 2% dextrose, and was supplemented with various additives required for growth: adenine sulfate (10 mg/L), uracil (20 mg/L), histidine (20 mg/L), leucine (200 mg/L) and/or tryptophane (50 mg/L). The SRG medium is identical to SD, with dextrose replaced by 2% raffinose and 2% galactose. 2% bacto-agar was used in solid media. SPII (2% potassium acetate, supplemented with essential amino acids at 7.5 mg/L) and SPIII (0.1% bacto-yeast extract and 2% bacto-agar added to SPII) media for sporulation are described in (Klapholz and Esposito, 1982; Klapholz et al;. 1985). S. cerevisiae strain W303D-ACC1^ΔLEU2 was also obtained from Dr. S. D. Kohlwein. Yeast cells were transformed as described before (Chen et al., 1992) using Frozen-ELZ kit (Zymo Research, Orange Calif.) according to the manufacturer's protocol and transformants were selected using SD plates lacking a marker amino acid. Sporulation was induced in SPII or SPIII medium at 30° C. for 2-3 days. Dissection of asci was performed as described (Guthrie and Fink, 1991). YPD or YPRG plates were used for vegetative growth of ascospore clones following dissection. Galactose-dependent strains (MJ 6.8, 6.9, 1.12 and 1.13) were grown in YPRG medium and other strains in YPD medium, all at 30° C. To measure galactose induction, the strains were grown for ~24 h in YPR medium until all galactose was exhausted (growth of galactose-dependent strains ceased), and then diluted ~100 fold with YPR medium containing various amounts of galactose.\nSethoxydim and Cethoxydim (CGA215684) were obtained from CIBA-GEIGY and haloxyfop was obtained from DowElanco. To measure inhibition in vivo, galactose-dependent strains were grown in YPR containing 0.01% galactose (to A600 of ~0.5) and then diluted (~100 fold) to the same initial density with fresh YPR medium containing 0.01% galactose and varying amounts of herbicide added as 100-fold concentrated stock solutions in DMSO. ACCase activity in vitro was measured using protein extracts prepared as described (Mitchell et al., 1993) from 25-50 ml cultures of yeast strains MJ 1.12 and MG 9.11 grown for 24-40 h. Cells were suspended in one volume of extraction buffer (0.3 M sorbitol, 0.1 M NaCl, 5 mM MgCl2, 10 mM Tris pH 7.4, supplemented with protease inhibitors: aprotinin (6.6 μ/mL), leupeptin (1.5 μ/mL), pepstatin A (3 μ/mL) and chymostatin (1 μg/mL), and vortexed with 2 volumes of glass beads for 5 min at 4° C. 1/200 volume of 100 mM ethanol solution of phenylmethylsulfonyl fluoride was added twice during extraction. The cell debris were removed by centrifugation and the supenatant (~0.5 ml) was loaded immediately on a 20 ml Sephadex G50 column equilibrated with 100 mM KCl, 20 mM Tris/HCl (pH 7.5), 20% glycerol, 7 mM β-mercaptoethanol. Protein was eluted with the same buffer and stored at -70° C. ACCase activity was measured as described before (Gornicki and Haselkorn, 1993) using aliquots of the column fractions. Herbicides were added to the reaction mixtures (1/10 or 1/20 volume) as a solution in 0.25-0.75 M Tris-HCl, pH8.0 containing 25% DMSO. Wheat germ extract was purchased from Promega."}, "[3]": {"target": "T2, yeast ACCase (Saccharomyces cerevisiae, UniProt Q00955)", "T2 construct": "containing one copy of the yeast ACC1 gene (on the chromosome) and expressing ACCase under its own promoter; endogenous in cells; host or cells: S. cerevisiae haploid strain MJ 9.11 (W303D-derived), crude extract, Sephadex G50", "assay": "In vitro inhibition of yeast ACCase (gel-filtered crude extract)", "type": "biochemical, S. cerevisiae", "method": "as §1"}, "[4]": {"target": "T3, wheat plastid ACCase (wheat germ extract) (Triticum aestivum, UniProt O48959)", "T3 construct": "mixed homoeologues, some cytosolic ACCase present", "T3 sequence (O48959 1-2311)": "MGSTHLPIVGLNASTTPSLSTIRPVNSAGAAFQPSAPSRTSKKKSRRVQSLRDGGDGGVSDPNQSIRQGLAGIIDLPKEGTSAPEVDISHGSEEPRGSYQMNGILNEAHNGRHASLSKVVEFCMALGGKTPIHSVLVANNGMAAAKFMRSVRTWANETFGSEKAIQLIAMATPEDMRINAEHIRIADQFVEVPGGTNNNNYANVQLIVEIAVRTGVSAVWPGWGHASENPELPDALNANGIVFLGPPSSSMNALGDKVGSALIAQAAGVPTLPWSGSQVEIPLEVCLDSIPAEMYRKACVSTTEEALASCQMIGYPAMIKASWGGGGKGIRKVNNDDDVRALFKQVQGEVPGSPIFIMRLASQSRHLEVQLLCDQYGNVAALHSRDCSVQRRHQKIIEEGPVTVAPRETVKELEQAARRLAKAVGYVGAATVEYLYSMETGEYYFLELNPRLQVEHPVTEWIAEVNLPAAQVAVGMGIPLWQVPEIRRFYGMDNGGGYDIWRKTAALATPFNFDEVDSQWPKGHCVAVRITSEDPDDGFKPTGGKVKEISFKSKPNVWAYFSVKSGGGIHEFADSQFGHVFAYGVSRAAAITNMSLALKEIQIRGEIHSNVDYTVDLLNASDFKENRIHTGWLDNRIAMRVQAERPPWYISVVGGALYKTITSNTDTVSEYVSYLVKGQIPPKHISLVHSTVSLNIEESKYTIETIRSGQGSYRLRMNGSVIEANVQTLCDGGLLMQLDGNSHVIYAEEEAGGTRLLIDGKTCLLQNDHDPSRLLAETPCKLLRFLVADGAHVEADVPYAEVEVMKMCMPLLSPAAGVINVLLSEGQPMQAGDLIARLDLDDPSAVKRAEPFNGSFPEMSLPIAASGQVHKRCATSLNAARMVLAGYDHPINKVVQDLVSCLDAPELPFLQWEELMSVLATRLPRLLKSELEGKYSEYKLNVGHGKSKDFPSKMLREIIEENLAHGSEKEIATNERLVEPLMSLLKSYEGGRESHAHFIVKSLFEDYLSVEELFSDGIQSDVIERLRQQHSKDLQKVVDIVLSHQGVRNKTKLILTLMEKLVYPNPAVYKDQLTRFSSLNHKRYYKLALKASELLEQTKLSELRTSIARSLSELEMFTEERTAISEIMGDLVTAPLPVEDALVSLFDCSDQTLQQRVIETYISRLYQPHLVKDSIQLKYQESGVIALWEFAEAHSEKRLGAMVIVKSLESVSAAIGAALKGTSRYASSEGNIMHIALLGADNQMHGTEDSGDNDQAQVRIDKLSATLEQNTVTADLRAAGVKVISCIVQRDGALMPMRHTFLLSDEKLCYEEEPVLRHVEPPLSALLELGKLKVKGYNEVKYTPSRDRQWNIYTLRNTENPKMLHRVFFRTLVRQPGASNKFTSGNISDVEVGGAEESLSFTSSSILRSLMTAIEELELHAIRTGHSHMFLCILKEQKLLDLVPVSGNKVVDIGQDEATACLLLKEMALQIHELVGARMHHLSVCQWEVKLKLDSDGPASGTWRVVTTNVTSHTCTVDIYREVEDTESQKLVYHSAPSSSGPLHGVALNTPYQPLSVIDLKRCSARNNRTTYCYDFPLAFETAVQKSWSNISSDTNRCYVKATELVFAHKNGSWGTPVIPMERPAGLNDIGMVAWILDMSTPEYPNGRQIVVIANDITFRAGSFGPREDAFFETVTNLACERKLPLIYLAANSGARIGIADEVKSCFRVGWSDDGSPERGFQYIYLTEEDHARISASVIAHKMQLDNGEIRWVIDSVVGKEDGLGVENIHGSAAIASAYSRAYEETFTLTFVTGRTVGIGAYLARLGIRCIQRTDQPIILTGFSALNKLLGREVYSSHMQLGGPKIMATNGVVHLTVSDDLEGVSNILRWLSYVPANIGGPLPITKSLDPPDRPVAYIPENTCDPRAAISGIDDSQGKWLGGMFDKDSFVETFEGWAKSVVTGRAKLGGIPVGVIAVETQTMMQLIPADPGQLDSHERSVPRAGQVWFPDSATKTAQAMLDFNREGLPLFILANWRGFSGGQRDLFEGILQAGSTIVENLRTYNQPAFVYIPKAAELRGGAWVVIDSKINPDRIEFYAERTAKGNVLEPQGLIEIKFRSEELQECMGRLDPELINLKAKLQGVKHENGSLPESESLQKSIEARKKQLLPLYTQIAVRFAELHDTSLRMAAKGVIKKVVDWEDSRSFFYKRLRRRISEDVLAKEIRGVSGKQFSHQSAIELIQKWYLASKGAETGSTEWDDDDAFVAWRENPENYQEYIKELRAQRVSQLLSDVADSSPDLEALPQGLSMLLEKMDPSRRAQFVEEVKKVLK", "assay": "In vitro inhibition of ACCase in wheat germ extract", "type": "biochemical", "conditions": "wheat plastid enzyme in wheat germ extract", "method": "as §1"}, "[5]": {"test_system": "strain MJ 9.11 expressing yeast ACCase (ACC1)", "assay": "In vivo growth inhibition of yeast strain expressing yeast ACCase", "type": "cell-based, S. cerevisiae", "conditions": "MJ 9.11, 800 μM inhibitor", "method": "The yeast complex medium for vegetative growth contained 1% Bacto-yeast extract, 2% Bacto-peptone, 0.1% adenine sulfate and was supplemented with the following carbon sources: 2% Dextrose in YPD, 2% Raffinose in YPR, 2% galactose and 2% raffinose in YPRG. The yeast synthetic minimal medium (SD) contained 0.17% yeast nitrogen base, 0.5% ammonium sulfate, 2% dextrose, and was supplemented with various additives required for growth: adenine sulfate (10 mg/L), uracil (20 mg/L), histidine (20 mg/L), leucine (200 mg/L) and/or tryptophane (50 mg/L). The SRG medium is identical to SD, with dextrose replaced by 2% raffinose and 2% galactose. 2% bacto-agar was used in solid media. SPII (2% potassium acetate, supplemented with essential amino acids at 7.5 mg/L) and SPIII (0.1% bacto-yeast extract and 2% bacto-agar added to SPII) media for sporulation are described in (Klapholz and Esposito, 1982; Klapholz et al;. 1985). […]\nSethoxydim and Cethoxydim (CGA215684) were obtained from CIBA-GEIGY and haloxyfop was obtained from DowElanco. […] ACCase activity in vitro was measured using protein extracts prepared as described (Mitchell et al., 1993) from 25-50 ml cultures of yeast strains MJ 1.12 and MG 9.11 grown for 24-40 h. […] ACCase activity was measured as described before (Gornicki and Haselkorn, 1993) using aliquots of the column fractions. […]"}, "[6]": {"test_system": "maize ACCase, first minor peak", "conditions": "50 μM; first minor peak (Howard and Ridley, 1990); cited from earlier work"}, "[7]": {"target": "T3, wheat plastid ACCase (wheat germ extract)", "conditions": "shown previously (Gornicki and Haselkorn, 1993); cited from earlier work"}, "[8]": {"target": "T4, enzyme from pea chloroplasts (ACCase) (Pisum sativum, UniProt P18823+Q41008)", "T4 construct": "the enzyme from pea chloroplasts is relatively resistant; from tissue; host or cells: pea chloroplasts", "T4 sequence (P18823 1-590)": "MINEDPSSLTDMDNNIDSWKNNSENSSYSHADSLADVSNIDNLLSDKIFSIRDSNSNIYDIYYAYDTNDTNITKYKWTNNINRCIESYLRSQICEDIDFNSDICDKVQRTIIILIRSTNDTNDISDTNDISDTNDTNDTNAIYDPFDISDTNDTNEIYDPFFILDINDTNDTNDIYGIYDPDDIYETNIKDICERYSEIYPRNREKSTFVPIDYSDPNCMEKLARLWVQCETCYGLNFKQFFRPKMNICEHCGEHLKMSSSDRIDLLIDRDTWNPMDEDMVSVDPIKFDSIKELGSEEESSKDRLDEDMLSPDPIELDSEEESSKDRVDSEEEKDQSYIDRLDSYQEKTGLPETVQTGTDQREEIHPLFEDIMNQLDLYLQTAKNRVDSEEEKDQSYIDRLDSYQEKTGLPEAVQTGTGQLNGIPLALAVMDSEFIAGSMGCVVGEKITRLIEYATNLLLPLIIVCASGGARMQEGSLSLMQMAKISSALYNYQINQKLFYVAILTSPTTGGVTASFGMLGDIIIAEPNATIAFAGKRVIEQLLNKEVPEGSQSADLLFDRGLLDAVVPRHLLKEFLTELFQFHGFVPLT", "T4 sequence (Q41008 51-875)": "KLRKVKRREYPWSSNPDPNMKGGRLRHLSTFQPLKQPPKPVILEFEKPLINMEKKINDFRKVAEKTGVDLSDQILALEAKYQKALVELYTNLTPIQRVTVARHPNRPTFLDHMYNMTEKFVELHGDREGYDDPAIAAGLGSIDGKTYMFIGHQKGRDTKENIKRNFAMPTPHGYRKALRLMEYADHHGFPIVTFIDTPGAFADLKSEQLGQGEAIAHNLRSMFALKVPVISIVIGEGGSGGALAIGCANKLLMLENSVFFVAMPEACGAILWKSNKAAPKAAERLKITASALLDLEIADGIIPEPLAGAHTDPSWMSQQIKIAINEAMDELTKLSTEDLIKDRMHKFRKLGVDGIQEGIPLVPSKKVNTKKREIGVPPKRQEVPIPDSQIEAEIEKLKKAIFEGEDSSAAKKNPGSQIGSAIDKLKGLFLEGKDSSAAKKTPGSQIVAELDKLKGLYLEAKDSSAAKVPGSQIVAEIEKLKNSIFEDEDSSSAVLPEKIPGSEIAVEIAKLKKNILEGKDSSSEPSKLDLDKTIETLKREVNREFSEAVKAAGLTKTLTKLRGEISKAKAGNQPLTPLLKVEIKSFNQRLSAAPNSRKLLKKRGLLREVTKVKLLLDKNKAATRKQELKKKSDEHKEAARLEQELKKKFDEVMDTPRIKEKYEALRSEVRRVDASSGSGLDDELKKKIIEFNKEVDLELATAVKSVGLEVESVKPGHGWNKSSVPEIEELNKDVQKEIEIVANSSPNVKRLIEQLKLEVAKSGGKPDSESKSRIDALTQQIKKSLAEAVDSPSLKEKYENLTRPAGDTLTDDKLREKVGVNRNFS", "assay": "In vitro ACCase activity assay, pea chloroplast enzyme", "type": "biochemical", "conditions": "read-out: 50% inhibition of ACCase activity"}, "[9]": {"test_system": "wheat seedling leaves (ACCase, fatty acid synthesis)", "assay": "In vivo incorporation of 14C-acetate into fatty acids in cut wheat seedling leaves", "design": "species or system wheat (Triticum aestivum cv. Era)", "conditions": "Triticum aestivum; freshly cut wheat seedling leaves, 4-6 h; read-out: 50% inhibition of in vivo incorporation of 14C-acetate into fatty acids", "method": "For the in vivo assay of ACCase activity, 2-week old seedlings of wheat (Triticum aestivum cv. Era) were cut about 1 cm below the first leaf and transferred to a 1.5 ml micro tube containing ^14 C-sodium acetate and haloxyfop (Tris salt) for 4-6 h. The leaves were then cut into small pieces and treated with 0.5 ml of 40% KOH for 1 h at 70° C., and then with 0.3 ml of H2 SO4 and 20 μl of 30% TCA on ice. Fatty acids were extracted with three 0.5 ml aliquots of petroleum ether. The organic phase was washed with 1 ml of water. Incorporation of ^14 C-acetate into fatty acids is expressed as the percentage of the total radioactivity taken up by the seedlings. present in the organic phase."}}}
{"molecule": "CCC/C(=N\\OCC)C1=C(O)CC(CC(C)SCC)CC1=O", "note": "(stereo not shown) [Sethoxydim]", "values": [{"measurement": "in vitro inhibition of ACCase activity", "setting": "[1]", "result": "does not inhibit"}, {"measurement": "effect on growth of gene-replacement strain (in vivo)", "setting": "[2]", "result": "no effect"}, {"measurement": "in vitro inhibition of ACCase activity", "setting": "[3]", "result": "does not inhibit"}, {"measurement": "in vitro inhibition of ACCase activity", "setting": "[4]", "result": "weakest inhibitor"}]}
{"molecule": "CCC(=NOCC=CCl)C1C(=O)CC(C2(SC)CC2)CC1=O", "note": "(stereo not shown) [cethoxydim, Cethoxydim]", "values": [{"measurement": "growth at 800 μM", "setting": "[5]", "result": "unaffected"}, {"measurement": "in vitro inhibition of ACCase activity", "setting": "[1]", "result": "moderately inhibits"}, {"measurement": "growth at 800 μM", "setting": "[2]; MJ 1.12, 800 μM inhibitor", "result": "does not grow at all"}, {"measurement": "effect on growth of gene-replacement strain (in vivo)", "setting": "[2]", "result": "completely inhibits growth"}, {"measurement": "IC50", "setting": "[2]; Saccharomyces cerevisiae, MJ 1.12, YPR medium with 0.01% galactose, A600 24 hrs after inoculation, read-out: 50% inhibition of growth", "result": "~20", "unit": "µM"}, {"measurement": "in vitro inhibition of ACCase activity", "setting": "[3]", "result": "although not completely resistant, is less sensitive"}, {"measurement": "in vitro inhibition of ACCase activity", "setting": "[4]", "result": "much stronger inhibitor"}]}
{"molecule": "CC(Oc1ccc(Oc2ccc(C(F)(F)F)cn2)cc1)C(=O)O", "note": "(stereo not shown) [fiuazifop, fluazifop]", "values": [{"measurement": "inhibition of ACCase activity", "setting": "[6]", "result": "not inhibited"}]}
{"molecule": "CC(Oc1ccc(Oc2ncc(C(F)(F)F)cc2Cl)cc1)C(=O)O", "note": "(stereo not shown) [haloxyfop]", "values": [{"measurement": "effect on growth of gene-replacement strain (in vivo)", "setting": "[2]", "result": "no effect"}, {"measurement": "sensitivity of ACCase activity to inhibitor", "setting": "[7]", "result": "highly sensitive"}, {"measurement": "IC50", "setting": "[8]", "result": "> 50", "unit": "µM"}, {"measurement": "IC50", "setting": "[9]", "result": "< 1", "unit": "µM"}]}
